Source: BigSolDB 2.1

C1OCOCO1
solubility (mole fraction)
Conditions | in dimethoxymethane | in ethanol | in isopropanol | in methanol
288.15 K | 0.32 | 0.136 | 0.17 | 0.167
293.15 K | 0.371 | 0.175 | 0.213 | 0.21
297.15 K | 0.416 | – | – | –
298.15 K | – | 0.228 | 0.268 | 0.26
300.15 K | 0.452 | – | – | –
303.15 K | 0.489 | 0.29 | 0.331 | 0.318
306.15 K | 0.527 | – | – | –
308.15 K | – | 0.362 | 0.417 | 0.398
309.15 K | 0.567 | – | – | –
312.15 K | 0.608 | – | – | –
313.15 K | – | 0.457 | 0.511 | 0.517
318.15 K | – | 0.591 | 0.643 | 0.645
321.15 K | – | – | – | 0.8
323.15 K | – | 0.74 | 0.793 | –
328.15 K | – | 0.913 | 0.945 | –
